# Assay results published in the supplement of paper PMC10307832.
# Compound: COc1cccc2c1C(=O)c1c(O)c3c(c(O)c1C2=O)C[C@@](O)(C(=O)CO)C[C@@H]3O[C@H]1C[C@H](N)[C@H](O)[C@H](C)O1 [Doxorubicin] + Cc1nc(Nc2ncc(C(=O)Nc3c(C)cccc3Cl)s2)cc(N2CCN(CCO)CC2)n1 [Dasatinib] (partner 0.075 µM)
# Assay: relative viability (nuclei count vs DMSO), 5 days (fraction); higher = more cells survive
# Conditions: first compound 0.001 µM
# Method in brief: (§1)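 For relative viability, nuclei counts in treated wells were divided by those in vehicle wells. Lung cancer cell lines had been pin-tool dosed in 1536-well plates the day after seeding and cultured for 5 days, then fixed and stained in one step (final 0.05% Triton X-100, 1% formaldehyde, 1 ug/ml Hoechst) and imaged at 4×. Doses were one drug alone or a fixed anchor-drug dose plus five library-drug doses (not always all listed) in √10 steps, and values are duplicate-plate medians.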
row,Cell Line,relative viability
1,LK-2,0.326
2,NCI-H2126,0.619
3,H3255,0.359
4,COR-L23,0.466
5,COR-L 105,0.431
6,LC-2-ad,0.691
7,LU99A,0.359
8,NCI-H358,0.175
9,NCI-H522,0.724
10,SW 900,0.544
11,NCI-H1395,0.415
12,NCI-H1563,0.481
13,NCI-H1944,0.18
14,NCI-H2170,0.625
15,ABC-1,0.612
16,SK-MES-1,0.458

# Same assay, conditions: first compound 0.003162 µM
row,Cell Line,relative viability
1,NCI-H2342,0.317
2,NCI-H1623,0.564
3,RERF-LC-KJ,0.83
4,NCI-H1651,0.39
5,NCI-H1734,0.572
6,NCI-H2009,0.319
7,NCI-H596,0.621
8,SK-LU-1,0.193
9,SW 1573,0.452
10,LCLC-97TM1,0.776
11,NCI-H661,0.846
12,NCI-H2228,0.598
13,EMC-BAC-2,0.316
14,NCI-H2087,0.844
15,NCI-H727,0.46
16,LK-2,0.284
17,NCI-H2126,0.556

row,Cell Line,relative viability
1,NCI-H1793,0.511
2,H3255,0.388
3,COR-L23,0.629
4,COR-L 105,0.355
5,LC-2-ad,0.602
6,LU99A,0.526
7,NCI-H358,0.161
8,NCI-H522,1.04
9,SW 900,0.66
10,NCI-H1395,0.422
11,NCI-H1563,0.505
12,NCI-H1792,0.901
13,NCI-H1944,0.206
14,NCI-H2170,0.687
15,ABC-1,0.56
16,SK-MES-1,0.396

# Same assay, conditions: first compound 0.01 µM
row,Cell Line,relative viability
1,NCI-H2342,0.323
2,NCI-H1623,0.55
3,RERF-LC-KJ,0.706
4,NCI-H1651,0.246
5,NCI-H1734,0.385
6,NCI-H2009,0.296
7,NCI-H596,0.681
8,SK-LU-1,0.166
9,SW 1573,0.174
10,LCLC-97TM1,0.831
11,NCI-H661,0.786
12,NCI-H2228,0.483
13,EMC-BAC-2,0.263
14,NCI-H2087,0.769
15,NCI-H727,0.305
16,LK-2,0.221
17,NCI-H2126,0.55

row,Cell Line,relative viability
1,NCI-H1793,0.374
2,H3255,0.436
3,COR-L23,0.486
4,COR-L 105,0.323
5,LC-2-ad,0.489
6,LU99A,0.527
7,NCI-H358,0.159
8,NCI-H522,0.873
9,SW 900,0.461
10,NCI-H1395,0.389
11,NCI-H1563,0.45
12,NCI-H1792,0.741
13,NCI-H1944,0.216
14,NCI-H2170,0.455
15,ABC-1,0.511
16,SK-MES-1,0.325

# Same assay, conditions: first compound 0.03162 µM
row,Cell Line,relative viability
1,NCI-H2342,0.298
2,NCI-H1623,0.548
3,RERF-LC-KJ,0.318
4,NCI-H1651,0.154
5,NCI-H1734,0.317
6,NCI-H2009,0.272
7,NCI-H596,0.506
8,SK-LU-1,0.124
9,SW 1573,0.106
10,LCLC-97TM1,0.734
11,NCI-H661,0.412
12,NCI-H2228,0.229
13,EMC-BAC-2,0.171
14,NCI-H2087,0.475
15,NCI-H727,0.368
16,LK-2,0.286
17,NCI-H2126,0.232

row,Cell Line,relative viability
1,NCI-H1793,0.33
2,H3255,0.333
3,COR-L23,0.27
4,COR-L 105,0.257
5,LC-2-ad,0.209
6,LU99A,0.422
7,NCI-H358,0.0904
8,NCI-H522,0.776
9,SW 900,0.36
10,NCI-H1395,0.398
11,NCI-H1563,0.462
12,NCI-H1792,0.769
13,NCI-H1944,0.165
14,NCI-H2170,0.436
15,ABC-1,0.33
16,SK-MES-1,0.141

# Same assay, conditions: first compound 0.1 µM
row,Cell Line,relative viability
1,NCI-H2342,0.326
2,NCI-H1623,0.491
3,RERF-LC-KJ,0.278
4,NCI-H1651,0.102
5,NCI-H1734,0.255
6,NCI-H2009,0.235
7,NCI-H596,0.579
8,SK-LU-1,0.116
9,SW 1573,0.0634
10,LCLC-97TM1,0.884
11,NCI-H661,0.316
12,NCI-H2228,0.112
13,EMC-BAC-2,0.12
14,NCI-H2087,0.222
15,NCI-H727,0.329
16,LK-2,0.265
17,NCI-H2126,0.224

row,Cell Line,relative viability
1,NCI-H1793,0.413
2,H3255,0.33
3,COR-L23,0.128
4,COR-L 105,0.261
5,LC-2-ad,0.161
6,LU99A,0.361
7,NCI-H358,0.0827
8,NCI-H522,1
9,SW 900,0.406
10,NCI-H1395,0.376
11,NCI-H1563,0.483
12,NCI-H1792,0.706
13,NCI-H1944,0.174
14,NCI-H2170,0.553
15,ABC-1,0.224
16,SK-MES-1,0.128

# Compound: COc1cccc2c1C(=O)c1c(O)c3c(c(O)c1C2=O)C[C@@](O)(C(=O)CO)C[C@@H]3O[C@H]1C[C@H](N)[C@H](O)[C@H](C)O1 [Doxorubicin] + O=C(CCCCCCC(=O)Nc1ccccc1)NO [Vorinostat] (partner 1 µM)
# Assay: as above
# Conditions: first compound 0.001 µM
# Method in brief: as §1
row,Cell Line,relative viability
1,NCI-H2342,0.757
2,RERF-LC-KJ,0.672
3,NCI-H1651,0.572
4,NCI-H1734,0.737
5,NCI-H2009,0.682
6,NCI-H596,0.533
